The values that follow come from article PMC10815964, “Cyclobutanone Inhibitors of Diaminopimelate Desuccinylase (DapE) as Potential New Antibiotics” (International Journal of Molecular Sciences, 2024).

SMILES strings stand for the structures. Values joined by “and” are separate entries in the source; they are usually repeats but may differ in a detail not shown here. Equal values may be shown once. Read-outs that look alike come from different tables or passages of the source. A value given as a limit tells only on which side of the number the result lay.

Details of data set [1]: method as in doi:10.1021/ja00103a024. As to conditions: in D2O, cited from earlier work.
In data set [2] the test system is DapE. The note with it: cited from earlier work.
For data set [3], the target named is HiDapE (Haemophilus influenzae, UniProt P44514). Kind of data set: DapE inhibition, ninhydrin-based assay. The format is biochemical. As to conditions: for inhibition at 100 µM: 100 µM inhibitor, read-out: DapE % Inhib at 100 µM; for IC50: ninhydrin assay. As to the method:
All compounds were screened for DapE inhibitory potency using a ninhydrin-based assay at 100 μM, and IC50 values were determined for molecules that inhibited DapE > 70% at 100 μM (Table 1). Some SAR trends emerge from the data.
Experimental IC50 curves for cyclobutanone inhibitors against DapE were identified as sigmoidal shaped response curves, as opposed to simple hyperbolic plots. […] IC50 curves with the corresponding Hill coefficients are reported in the Supplementary Materials as Figures S74−S81. Experimental Hill coefficients may provide information on the number of binding sites of a biological target (receptors and enzymes) interacting with ligands.
The inhibition of HiDapE by potential inhibitors was assessed using the previously developed ninhydrin assay with slight modifications. It was performed in a PCR Thermal Cycler System. All experiments were performed in triplicate in 50 mM HEPES buffer at pH 7.5. Reaction volumes were 100 µL of 2 mM N^6-Methyl-L,L-SDAP and 8 nM HiDapE. Ninhydrin was purchased as a 2% solution in 100% DMSO/lithium acetate buffer at pH 5.2. The inhibitor, followed by HiDapE, was added to a 50 mM HEPES (pH 7.5) buffered solution at 30 °C, and the mixture was incubated at 30 °C for 10 min. N^6-Methyl-L,L-SDAP was added, and the reaction mixture was incubated at 30 °C for 10 min, then heated to 99 °C for 1 min, and further cooled to 0 °C for 1 min. The 2% ninhydrin solution (50 µL) was added, and the mixture was thoroughly mixed. The reaction mixture was heated to 80 °C for 15 min, then cooled to 0 °C for 1 min. The absorbance of an 80 μL aliquot was recorded at 570 nm on a BioTek Synergy 2 microplate reader. All the inhibition assays of HiDapE were performed in triplicate and the IC50 values were obtained by fitting the data following the modified Hill equation: V = V0 + (Vmax − V0) XnH/(XnH0.5 + XnH) using the graphing suite Origin 9.1 with the Levenberg–Marquardt non-linear least-squares algorithm. The velocity in the absence of the substrate is […]; the velocity at saturating concentrations of the substrate or with no inhibitor for the inhibition assay is Vmax; X is the concentration of the substrate or inhibitor; and X0.5 is the substrate (S0.5) and inhibitor (I0.5) concentration at 50% maximum velocity and at 50% inhibition, respectively. The Hill coefficient is represented as nH.

Data set [4] concerns the target H. influenzae DapE (HiDapE) (Haemophilus influenzae, UniProt P44514). The experiment in a line: Thermal shift assay (SYPRO Orange). The format is binding. As to the method:
A thermal shift assay was conducted to observe changes in the thermal stability of DapE under various concentrations of the inhibitor 3y, as summarized in Table 2. These studies were conducted on a Step One Real-Time PCR System and associated QuantStudio software (QuantStudio 5, Design and Analysis 2) through the fluorescence of the SYPRO Orange dye during protein denaturation. […] Upon addition of the inhibitor 3y, we observed a stabilization of the tertiary structure of the enzyme binding to the inhibitor, as indicated by a positive shift in the first melt temperature (Tm1). […] The thermal shift assay plot of Tm vs. log [3y (µM)] to determine the Ki of compound 3y is in the Supplementary Materials as Figure S82. […] Binding of a ligand most commonly leads to further stabilization of a protein, but destabilization as indicated by a lower Tm has been observed by others. Based on our previous work, [27] we observed sequential temperatures at which HiDapE was dissociating via circular dichroism: first at about 60 °C, which we hypothesize is the dimer dissociating, and a second at about 80 °C, which may represent denaturation of the monomer.
H. influenzae DapE was used at a final concentration of 200 nM and SYPRO Orange was used at a final concentration of 10×. It was performed in a Step One Real-Time PCR System (Applied Biosystems, Waltham, MA, USA). The experiment was carried out in 10 µL triplicates in 50 mM HEPES buffer at pH 7.5, nanopure water, and the inhibitor concentrations were based on the IC50 values of the inhibitor, 3y. Sample solutions were dispensed into a 96-well optical reaction plate (Thermo Fisher Scientific, Waltham, […], USA) and the plate was sealed with an optical PCR plate sheet (Thermo Fisher Scientific). […] Melting curves were obtained from the negative derivative and exported from the instrument into Excel. The negative melting temperatures were smoothed and differentiated to the negative third derivative. The Tm data were plotted against the log(concentration of 3y) with GraphPad Prism using a derived Van’t Hoff equation [39] to find the Ki value.

Data set [5] can be described thus: Cyclobutanone/hydrate equilibrium by NMR. Format: physicochemical. An excerpt: Cyclobutanone 3y is soluble in CDCl3, but we wanted to vary the amount of D2O, and water has a solubility of only 0.815% in chloroform, so varying the quantity of D2O would not alter the concentration of D2O in CDCl3 solution once saturation is reached. We therefore selected DMSO-d6 as the solvent to enable the varying of the D2O concentration, which also provides a more polar environment that is more conducive to hydrate formation and is a better mimic of the environment of the enzyme in aqueous media. The ratio of hydrate to ketone was determined by the ratio of the integrals of the proton alpha to the hydrate/carbonyl and the α-amino group, which was 4.67 ppm for the hydrate in DMSO-d6 + 20% D2O and 4.40 ppm for the cyclobutanone ketone in DMSO-d6 + 20% D2O.
Cyclobutanone 3y was massed to 2–3 mg and the exact mass was recorded. Compound 3y was then dissolved in the appropriate amount of deuterated solvent (DMSO-d6 or CDCl3) and vortexed. The appropriate amount of deuterium oxide (0%, 2%, 10%, 20%, or 30%) was added to the sample and the sample was vortexed. The sample was inserted into the Bruker 500 MHz NMR and data were collected for 64 scans. The raw data were analyzed with the Mnova NMR program, and the Keq was calculated via the method described by the Wiberg group.

HiDapE, sequence (P44514 whole entry): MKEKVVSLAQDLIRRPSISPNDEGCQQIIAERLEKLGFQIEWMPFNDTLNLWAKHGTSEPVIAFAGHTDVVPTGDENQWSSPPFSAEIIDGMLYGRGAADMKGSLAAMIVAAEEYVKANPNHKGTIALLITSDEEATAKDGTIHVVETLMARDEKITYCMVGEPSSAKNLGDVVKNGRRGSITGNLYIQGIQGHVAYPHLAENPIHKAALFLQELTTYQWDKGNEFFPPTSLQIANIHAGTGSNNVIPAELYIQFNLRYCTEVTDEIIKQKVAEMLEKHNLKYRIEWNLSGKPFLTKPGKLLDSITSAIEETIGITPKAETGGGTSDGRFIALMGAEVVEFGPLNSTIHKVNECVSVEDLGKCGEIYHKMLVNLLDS
H. influenzae DapE (HiDapE), sequence (P44514 whole entry): as above

For `O=C1CCC1` [Cyclobutanone, cyclobutanone], in data set [1], the “% Hydrate” value is on record as 2.0% and the “Keq = [hydrate]/[ketone]” value is 2.8 × 10^−3. The “% Hydrate” value in data set [1] (listed as cyclobutanone) is given as “about 2%”.

Turning to `C[C@H](CS)C(=O)N1CCC[C@H]1C(=O)O` [captopril], the DapE inhibition entry in data set [2] is reported as “low micromolar inhibitor”.

The term melting point denotes the temperature, or range, at which the solid turns liquid. As for `COC(=O)c1ccc(S(=O)(=O)N[C@@H](C(=O)NC2CCC2=O)C(C)C)cc1` (mixture of isomers) [3ab, Methyl 4-(N-((2R)-3-methyl-1-oxo-1-((2-oxocyclobutyl)amino)butan-2-yl)sulfamoyl)benzoate], the melting point fell in the range of 190 to 191 °C. Moreover, in data set [3], the inhibition at 100 µM turned out to be 10.7%.

In turn, `O=C(NC1CCC1=O)c1cncc(Br)c1` (stereo not shown) [3o, 5-Bromo-N-(2-oxocyclobutyl)nicotinamide] gave a melting point of 114 to 115 °C. Further, the inhibition at 100 µM in data set [3] worked out at 34.6%.

Consider `O=C(NC1CCC1=O)c1ccncc1` (stereo not shown) [3p, N-(2-Oxocyclobutyl)isonicotinamide], for which the melting point fell in the range of 119 to 121 °C. The inhibition at 100 µM in data set [3] was < 5%.

By IC50 is commonly meant the concentration needed to halve the response being measured. The term Ki denotes the dissociation constant of the complex between target and ligand, obtained from inhibition or displacement. `COc1ccc(S(=O)(=O)N[C@@H](C(=O)NC2CCC2=O)C(C)C)cc1` (mixture of isomers) [3y, (2R)-2-((4-Methoxyphenyl)sulfonamido)-3-methyl-N-(2-oxocyclobutyl)butanamide] displayed a melting point of 179 to 181 °C. Also, in data set [3], the inhibition at 100 µM turned out to be 99.7% and the half-inhibitory concentration (IC50) amounted to 23.1 ± 0.9 µM. Moreover, in data set [4] (200 nM HiDapE + 1 μM 3y), the Tm1 was 49.6 +/− 0.18 °C and the Tm2 is 76.5 +/− 0.54 °C. In data set [4] (200 nM HiDapE + 5 μM 3y), the Tm1 is 49.0 +/− 0.30 °C and the Tm2 is 77.3 +/− 0.20 °C. In data set [4] (200 nM HiDapE + 10 μM 3y), the Tm1 is 50.0 +/− 0.34 °C and the Tm2 was 77.3 +/− 0.23 °C. In addition, in data set [4] (200 nM HiDapE + 20 μM 3y), the Tm1 is 51.2 +/− 0.13 °C and the Tm2 was 77.3 +/− 0.51 °C. Also, in data set [4] (200 nM HiDapE + 30 μM 3y), the Tm1 was 52.1 +/− 0.5 °C and the Tm2 was 75.1 +/− 0.17 °C. Also, in data set [4] (200 nM HiDapE + 40 μM 3y), the Tm1 was 52.7 +/− 0.37 °C and the Tm2 was 75.2 +/− 0.11 °C. Also, in data set [4] (200 nM HiDapE + 50 μM 3y), the Tm1 was 53.4 +/− 0.23 °C and the Tm2 was 74.7 +/− 0.40 °C. Also, in data set [4] (200 nM HiDapE + 60 μM 3y), the Tm1 is 54.1 +/− 0.35 °C and the Tm2 is 75.1 +/− 0.23 °C. Further, in data set [4] (200 nM HiDapE + 75 μM 3y), the Tm1 is 54.6 +/− 0.42 °C; the Tm2 was 75.7 °C and 75.7 +/− 0.29 °C. The inhibitory constant (Ki) in data set [4] (from Tm1 vs log[3y], 200 nM HiDapE) stood at 10.2 µM. Besides, the “% Hydrate” value in data set [5] (CDCl3 + 30% D2O) is 7.33%. The “Keq = [hydrate]/[ketone]” value in data set [5] (CDCl3 + 30% D2O (saturated with D2O)) was found to be 0.082. Moreover, in data set [5] (DMSO-d6 + 2% D2O), the “% Hydrate” value was determined as 35.4% and the “Keq = [hydrate]/[ketone]” value came to 0.58. For the same molecule, in data set [5] (DMSO-d6 + 10% D2O), the “% Hydrate” value stood at 38.8% and the “Keq = [hydrate]/[ketone]” value worked out at 0.61. Besides, the “% Hydrate” value in data set [5] (DMSO-d6 + 20% D2O) was 40%.

For `O=C(NC1CCC1=O)c1cccnc1Cl` (stereo not shown) [3n, 2-Chloro-N-(2-oxocyclobutyl)nicotinamide], the melting point was 80 to 82 °C. In addition, the inhibition at 100 µM in data set [3] is < 5%.

`COc1ccc(C(=O)NC2CCC2=O)c(O)c1` (stereo not shown) [3j, 2-Hydroxy-4-methoxy-N-(2-oxocyclobutyl)benzamide] came in with a melting point of 131 to 133 °C. Moreover, in data set [3], the inhibition at 100 µM was 73% and the IC50 stood at 66.4 ± 2.9 µM.

With `O=C(Cc1ccc(Br)cc1)NC1CCC1=O` (stereo not shown) [3t, 2-(4-Bromophenyl)-N-(2-oxocyclobutyl)acetamide], the melting point lay within 124 to 127 °C. For the same molecule, in data set [3], the inhibition at 100 µM amounted to 59%.
